Reference: patent publication US20080075796A1, “Compositions and Methods for Controlling Insects” (TyraTech, Inc., priority 2003, published 2008)
Where “and” joins values, the source holds several entries; their conditions need not be identical. Identical values can stand only once.

Columns and labels:
[1] = tested on: Or83b and Or43a receptors; test: Interaction of plant essential oils with olfactory receptor binding site (membranes, ^3H-tyramine); set-up: species or system Drosophila melanogaster; conditions: membranes incubated with ^3H-tyramine
Protocol: (§1) The cells expressing one of the olfactory receptors are used to investigate the interaction of plant essential oils with these receptors and the signaling cascade downstream of each receptor.
(§2) For the binding activity, membranes are prepared from each cell model and used to investigate the interaction of plant essential oil with the receptor binding site.

[2] = molecular target: T1, Or43a receptor (Drosophila melanogaster, UniProt P81917, L154V); test: Intracellular Ca^2+ mobilization in Schneider cells expressing Or43a receptor; assay type: cell-based; conditions: before vs approximately 150 seconds after treatment
T1 construct: His (from vector pAc5.1/V5-His B) (C); expressed in transfected cells
T1 sequence (P81917 whole entry L154V): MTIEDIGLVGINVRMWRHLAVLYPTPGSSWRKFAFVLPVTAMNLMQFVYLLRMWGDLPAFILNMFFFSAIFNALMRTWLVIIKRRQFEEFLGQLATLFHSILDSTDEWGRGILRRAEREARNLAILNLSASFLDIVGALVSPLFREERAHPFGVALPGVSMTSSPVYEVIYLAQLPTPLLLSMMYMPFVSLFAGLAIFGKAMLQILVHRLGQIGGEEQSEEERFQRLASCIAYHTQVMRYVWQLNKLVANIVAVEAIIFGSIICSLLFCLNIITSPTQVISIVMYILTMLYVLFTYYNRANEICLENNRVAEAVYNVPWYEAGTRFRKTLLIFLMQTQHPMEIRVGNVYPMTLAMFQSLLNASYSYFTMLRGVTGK
Protocol: Intracellular calcium ion concentrations ([Ca^2+]i) are measured by using the acetoxymethyl (AM) ester of the fluorescent indicator fura-2 (Enan, et al., Biochem. Pharmacol vol 51, 447-454). In this study, cells expressing tyramine receptor are grown under standard conditions. A cell suspension is prepared in assay buffer (140 mM NaCL, 10 mM HEPES, 10 mM glucose, 5 mM KCl, 1 mM CaCl2, 1 mM MgCl2) and cell number adjusted to about 2×10^6 cells per ml. Briefly, about 1.0 ml cell suspension (about 2×10^6 cells) is incubated with about 5 μM Fura 2/AM for about 30 min at about 28° C. After incubation, the cells are pelleted at about 3700 rpm for about 10 sec at room temperature and then resuspended in about 1.5 ml assay buffer. [Ca^2+]i changes are analyzed in spectrofluorometer in the presence and absence of test chemicals. Excitation wave lengths are about 340 nm (generated by Ca^2+-bound fura-2) and about 380 nm (corresponding to Ca^2+-free fura-2). The fluorescence intensity is monitored at an emission wave length of about 510 nm. No absorbance of fluorescence artifacts are observed with any of the compounds used. The ratio of about 340/380 nm is calculated and plotted as a function of time.
Intracellular Ca^2+ levels are measured using the method described above in Example 3.
Changes in intracellular Ca^2+ levels are calculated based on the difference between the 340/380 fluorescence ratios before and after approximately 150 seconds of the treatment.

[3] = tested on: Drosophila melanogaster Or83b olfactory receptor, SEQ ID NO: 6; test: Interaction of plant essential oils with Or83b receptor binding site (3H-tyramine); conditions: membranes, FIGS. 16, 18-21
Protocol: (§3) Total RNA is prepared from the head and antenna of wild type Drosophila melanogaster using Trizol Reagent (Invitrogen). They are homogenized in the Trizol using a motor driven teflon pestle and glass homogenizer. RNA is then prepared as per the manufacturer's instructions and includes removal of proteoglycans and polysaccharides by precipitation. The total RNA is reverse transcribed using oligo-dT as a primer and MuLV reverse transcriptase (Applied Biosystems). […] The Sense oligonucleotides contain Not I sites and the antisense oligonucleotides contain Sac II sites. Both restriction sites are indicated by underlined nucleotide. […] For PCR amplification of Or83b, Vent polymerase (New England Biolabs) is used with the following conditions: about 95° C., about 5 min for about 1 cycle; about 95° C., about 30 sec; and about 70° C., about 90 sec for about 40 cycles; and about 70° C., about 10 min for about 1 cycle. For PCR amplification of Or43a, the Failsafe PCR premix selection kit (Epicentre Technologies) is used with the following conditions: about 95° C., about 5 mill for about 1 cycle; about 95° C., about 30 sec; about 60° C., about 30 sec and about 70° C., about 90 sec for about 50 cycles; and about 70° C., about 10 min for about 1 cycle. […] The PCR products are digested with Sac II and Not I, gel purified and ligated into pAC 5.1/N5 His B (Invitrogen). Inserts are sequenced on both strands by automated fluorescent sequencing (Vanderbilt Cancer Center).
(§4) To address whether Or83b receptor and Or43a receptor contain a specific binding site for tyramine, membranes expressing Or83b receptor or Or43a receptor are prepared from cells expressing either receptor, as described above, and used for competitive binding with ^3H-tyramine. The binding assay protocol is exactly as described for cells expressing TyrR, as described above.
as §1, §2

[4] = tested on: Drosophila melanogaster Or43a olfactory receptor, SEQ ID NO: 4; test: Interaction of plant essential oils with Or43a receptor binding site (3H-tyramine); conditions: membranes, FIGS. 16, 17, 19-21
Protocol: as §3, §4, §1, §2

[5] = tested on: farm ants; test: Repellent effect on farm ants (treated filter paper); assay type: in vivo; conditions: for repellency: in words
Protocol: Adult insect are randomly selected for testing the repellent effect of compositions and are not individually marked. About 5 insects per replicate are used. About 3 replicates are used for each treatment. Untreated control tests are included with only solvent (acetone) application to an equal sized population/replications, held under identical conditions. A filter paper (about 80 cm^2) is treated with the composition (about 100 mg in […] acetone). After about 3 min of air drying, the filter paper is placed in a dish and repellency against insects is performed. Insects are released to the dish, one insect at a time at the far end of the dish. Using one or more stopwatches, the time spent on either the filter paper or the untreated surface of the dish is recorded up to about 300 seconds. Repellency ratio (RR) is calculated as follows: RR=[(time on control surface−time on treated surface)/total time of test].
The repellent effect of various plant essential oils is tested by treating a filter paper with the test oils. After about five minutes at room temperature, the paper is placed in a dish and ants are introduced one at a time. […] Oils are tested alone. Additionally, oils are mixed to form compositions, which are then tested.

[6] = Day 0, time on treated surface of up to about 300 seconds
[7] = Day 0, test up to about 300 seconds

Row | Compound | interaction with the olfactory receptors [1] | change in intracellular Ca^2+ levels (340/380 fluorescence ratio) [2] | interaction with the olfactory receptor [3] | interaction with the olfactory receptor [4] | Repellency %, R % ([5]; Day 0) [%] | sec. on T surface [5, 6] [s] | Repellency %, R % ([5]; Day 1) [%] | sec. on T surface ([5]; Day 1) | sec. on T surface [5, 7] [s] | sec. on T surface ([5]; Day 1, test up to about 300 seconds) | repellency [5]
1 | Cc1ccc(C(C)C)cc1 [p-cymene] | interact with the olfactory receptors | calcium mobilization | interact | interact | 42.5 | 86.2 | 10.9 | 133.6 s | – | – | –
2 | CC1=CCC(C(C)(C)O)CC1 (stereo not drawn) [α-terpineol] | interact with the olfactory receptors | – | interact | interact | 26.9 | 109.6 | – | – | – | – | –
3 | C=C(C)[C@H]1CC=C(C)C(=O)C1 [d-carvone] | – | calcium mobilization | – | – | – | – | – | – | – | – | –
4 | C/C=C/c1ccc(OC)cc1 [t-anethole] | interact with the olfactory receptors | – | interact | interact | – | – | – | – | – | – | –
5 | C=C(C)[C@H]1CC=C(C)CC1 [d-limonene] | interact with the olfactory receptors | calcium mobilization | interact | interact | 62.9 | 55.7 | – | 136.2 s and 136.4 s and 133.6 s | 55.7 | 136.2 s and 136.4 s and 133.6 s | –
6 | OCc1ccc2c(c1)OCO2 [piperonyl alcohol] | interact with the olfactory receptors | calcium mobilization | interact | interact | – | – | – | – | – | – | –
7 | C=C(C)[C@@H]1CC=C(CO)CC1 [perillyl alcohol] | – | calcium mobilization | – | – | – | – | – | – | – | – | –
8 | CC1=CCC2CC1C2(C)C (stereo not drawn) [α-pinene] | interact with the olfactory receptors | calcium mobilization | interact | interact | 48.4 | 77.4 | 07.2 | 139.2 s | – | – | –
9 | Cc1ccc(C(C)C)cc1O [carvacrol] | interact with the olfactory receptors | calcium mobilization | interact | interact | – | – | – | – | – | – | display repellency
10 | NCc1ccc2c(c1)OCO2 [piperonyl amine] | interact with the olfactory receptors | calcium mobilization | interact | interact | 48.3 | 77.6 | 25.9 | 111.2 s | – | – | –
11 | lindenol [listing 1 of 2 here] | interact with the olfactory receptors | calcium mobilization | – | – | – | 144.2 | – | – | – | – | –
12 | terpinene 900 [listing 1 of 2 here] | interact with the olfactory receptors | calcium mobilization | – | – | – | – | – | – | – | – | –
13 | C=CC(C)(O)CCC=C(C)C (stereo not drawn) [linalool] | interact with the olfactory receptors | calcium mobilization | interact | interact | 60.7 | 59.0 | 25.9 | 111.2 s | – | – | –
14 | C=CC(C)(CCC=C(C)C)OC(=O)c1ccccc1N (stereo not drawn) [linalyl anthranilate] | interact with the olfactory receptors | calcium mobilization | interact | interact | 69.2 | 46.2 | 30.7 | 104.6 s | – | – | –
15 | lindenol [listing 2 of 2 here] | – | – | interact | interact | 04.0 | – | – | – | 144.2 | – | –
16 | O=Cc1ccc2c(c1)OCO2 [piperonal] | interact with the olfactory receptors | decreases the intracellular Ca^2+ levels | interact | interact | 37.6 | 93.6 | 16.1 | 125.8 s | – | – | –
17 | CC(C)[C@]12CC(=O)[C@H](C)[C@H]1C2 [α-thujone] | interact with the olfactory receptors | calcium mobilization | interact | interact | – | – | – | – | – | – | display repellency
18 | C=C[C@H]1C[N@@]2CC[C@H]1C[C@H]2[C@H](O)c1ccnc2ccc(OC)cc12 [quinine] | – | calcium mobilization | – | – | – | – | – | – | – | – | –
19 | O=C1C=CC(=O)C=C1 [quinone] | interact with the olfactory receptors | – | interact | interact | – | – | – | – | – | – | –
20 | terpinene 900 [listing 2 of 2 here] | – | – | interact | interact | – | – | – | – | – | – | –
21 | CCOC(=O)c1ccccc1C(=O)OCC [diethyl phthalate] | interact with the olfactory receptors | – | interact | interact | – | – | – | – | – | – | –
22 | C=C1CCC2(C(C)C)CC12 (stereo not drawn) [sabinene] | interact with the olfactory receptors | calcium mobilization | interact | interact | – | – | – | – | – | – | display repellency
23 | l-carvone | – | calcium mobilization | – | – | – | – | – | – | – | – | –
